The target of one series is T1, human mPGES-1 (Homo sapiens, UniProt O14684).
T1 construct: expressed in transfected cells; host or cells: COS-1 cells (microsomal fraction)
T1 sequence (O14684 1-152): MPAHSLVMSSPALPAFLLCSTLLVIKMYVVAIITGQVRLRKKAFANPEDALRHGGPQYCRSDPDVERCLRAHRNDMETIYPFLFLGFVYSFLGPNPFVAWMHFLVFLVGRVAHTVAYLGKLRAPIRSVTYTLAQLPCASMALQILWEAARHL
Nature of the series: Test for mPGES-1 inhibitory activity. Particulars: microsomes of COS-1 cells expressing human mPGES-1; PGH2 1 μM; 4° C.; PGE2 by EIA; read-out: IC50 value (mPGES-1 inhibition). Type of series: biochemical. The protocol: Microsomes were prepared from COS-1 cells transiently transfected with a plasmid containing human mPGES-1 cDNA, and used as mPGES-1 enzyme. The mPGES-1 enzyme was diluted with a sodium phosphate buffer (pH 7.2) containing reduced glutathione (2.5 mM) and EDTA (1 mM), DMSO or a DMSO solution of a test compound (final concentration of DMSO was 1%) was added to the enzyme, and the mixture was preincubated at 4° C. for 15 minutes. Then, PGH2 as the substrate was added at a final concentration of 1 μM to start the enzymatic reaction, and after incubation at 4° C. for 4 minutes, a solution of ferric chloride (25 mM) and citric acid (50 mM) was added to terminate the enzymatic reaction. Generated PGE2 was measured by using Prostaglandin E2 Express EIA Kit (Cayman Chemical). IC50 values were determined by using a standard method.

Series [1] concerns UGT. Nature of the series: Metabolic stability test (UGT), guinea pig microsomes. The class given is in vitro ADME. Particulars: Guinea pig liver or small intestine microsomes 0.5 mg protein/mL, compound 1 μM, UDPGA 2 mM, 5 minutes at 37° C. The procedure:
(§1) DMSO was added to the compound of Example 1 to dissolve the compound, and then acetonitrile and water were added to prepare a test compound solution (10 μM). The test compound solution (final concentration 1 μM), a potassium phosphate buffer (pH 7.4) containing MgCl2 (9 mM) and alamethicin (25 μg/mL), and a rat or guinea pig liver or small intestine microsomal suspension were mixed (final concentration 0.5 mg protein/mL) under ice cooling. After 5 minutes of pre-incubation at 37° C. with stirring, a UDPGA solution (final concentration 2 mM) was added to initiate the reaction. After 5 minutes of incubation at 37° C. with stirring, 3-fold volume of acetonitrile was added, and the resulting mixture was stirred to terminate the enzymatic reaction. The reaction mixture was centrifuged (1500×g, 10 minutes, 4° C.), and the supernatant was mixed with an internal standard solution to prepare a measurement sample. The concentration of the compound in the sample was determined by LC-MS/MS. A sample in which the enzymatic reaction was not allowed was separately prepared, and the concentration measured for this sample was used as the initial value. For comparison, the compound of International Publication WO2017/73709, Example 182 was tested in the same manner.

Another series is described as follows: Solubility test. Particulars: aqueous buffer, kinetic from dmso stock; JP2 solution (pH 6.8), 10 mM DMSO solution diluted 50-fold, incubation 16 to 24 hours. The class given is physicochemical. The procedure:
A 10 mM solution of the compound of Example 1 in DMSO was prepared, and diluted 50-fold with JP2 solution (pH 6.8). After incubation for 16 to 24 hours, the test solution was filtered, and the concentration of the compound in the filtrate was determined by HPLC-UV or with a plate reader. For comparison, the compound of International Patent Publication WO2017/73709, Example 182 was tested in the same manner.

The test system of series [2] is UGT. Nature of the series: Metabolic stability test (UGT), rat microsomes. The class given is in vitro ADME. Particulars: Rat liver or small intestine microsomes 0.5 mg protein/mL, compound 1 μM, UDPGA 2 mM, 5 minutes at 37° C. The procedure: as §1
A short description of series [3]: Blood concentration (plasma pharmacokinetics after oral administration). Type of series: in vivo. Particulars: female, guinea pig, guinea pigs, oral 10 mg/kg, mean (n = 2). The procedure: The compound of Example 1 and the compound disclosed in International Patent Publication WO2017/73709, Example 182 were weighed in an amount of 10 mg each for a dose of 10 mg/kg, and each compound was finely ground in an agate mortar for about 30 seconds. 0.5% Methyl cellulose 400 solution (Fujifilm Wako Pure Chemicals Co., Ltd.) was added small portionwise to each compound to form a suspension, finally the mortar was washed with a small volume of 0.5% MC400 solution, which was combined with the suspension, and the total volume of the suspension was made to be 10 mL with 0.5% MC400 solution. The suspension was sonicated for approximately 1 minute to prepare a 1 mg/mL solution for administration. The solution was administered to two female guinea pigs at a dose of 10 mL/kg using a flexible oral catheter (RZ-1, Nippon Clea), and blood was collected 0.5, 1, 2, 4, 6, 10, and 24 hours after the oral administration, and centrifuged to obtain plasma. Plasma concentrations of the compounds were measured by the LC-MS/MS (liquid chromatography-tandem mass spectrometry) method.

Molecules are shown by their SMILES. Some results are limits rather than exact numbers.

Data on one compound can be found in patent publication US12552769B2, “Pyrimidine derivative” (ASKA PHARMACEUTICAL CO., LTD., priority 2021, dated 2026).

A word on the IC50: it is the concentration that inhibits the measured activity by half. The solubility is the dissolved amount per volume that the medium holds. A lower solubility goes with a poorly soluble substance. In general, AUC(0-inf) refers to the area under the concentration-time curve extrapolated to infinity. In general, AUC(0-t) refers to exposure summed from dosing to a finite time, without extrapolation to infinity. Read a high AUC(0-t) as high exposure. Usually Cmax stands for the peak of the concentration-time curve. For orientation: Tmax means the time at which the peak concentration occurs. One may read the half-life as the time in which the quantity being followed falls by half.

As to `CC(C)(F)C(=O)NCc1ccc(C(F)(F)F)c(-c2nc(-c3ccc(C(F)(F)F)cn3)cc(=O)[nH]2)c1F` [Example 1, 2-Fluoro-N-(2-fluoro-3-{6-oxo-4-[5-(trifluoromethyl)pyridin-2-yl]-1,6-dihydropyrimidin-2-yl}-4-(trifluoromethyl)benzyl)-2-methylpropanamide], on human mPGES-1, the IC50 stood at 1.8 nM. Further, in the series with UGT [1], the UGT metabolic stability was 130 μL/min/mg protein. This compound also returned a solubility in “Solubility test” of more than 110 µg/mL. The compound also registered a UGT metabolic stability with UGT [2] of 124 μL/min/mg protein. Also, in series [3], the AUC(0-inf) is 62.1 µM·h, the AUC(0-t) is 42.4 µM·h, the concentration peaked (Cmax) at 5.63 µM and the Tmax amounted to 1.5 h. The compound also showed a half-life in series [3] of 13.3 h. Moreover, the MRT inf in series [3] (read-out: MRT0-∞) amounted to 18.3 h.
